Source: patent US10968214B2, “KRas G12C inhibitors” (Eli Lilly and Company, priority 2018, dated 2021)
pEC50, pIC50: −log10 of the molar value. Values joined by “and” are separate entries in the source; they are usually repeats but may differ in a detail not shown here. Equal values may be shown once. Read-outs that look alike come from different tables or passages of the source.

Key:
KRas G12C = KRas G12C (Homo sapiens, UniProt P01116, G12C); experiment: KRas G12C Probe Occupancy TR-FRET Assay; type: binding; conditions: read-out: IC50
Chain of KRas G12C (P01116 1-188 isoform P01116-2 G12C): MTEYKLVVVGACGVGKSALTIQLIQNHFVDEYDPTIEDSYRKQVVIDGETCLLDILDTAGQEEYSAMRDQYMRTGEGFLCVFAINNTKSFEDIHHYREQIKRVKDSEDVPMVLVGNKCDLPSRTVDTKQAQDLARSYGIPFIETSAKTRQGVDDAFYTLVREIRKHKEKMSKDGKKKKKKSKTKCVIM
Description: Inhibitors are tested in dose response format from 10 mM stocks in 100% DMSO. The Labycyte Echo® 555 is used to dilute and transfer 100 nL per well containing a 10 point, 2.8-fold serial dilution to an assay plate. […] The signal ratio (em at 665/em at 615) is converted to percent inhibition using the following equation: % Inhibition=100−[(Test Compound Signal−Median Minimum Signal)/(Median Maximum Signal−Median Minimum Signal)×100].

LXFA-983L = experiment: CellTiterGlo Cell Proliferation Assay, LXFA-983L; type: cell-based; conditions: KRas G12C, Lung, 96 hr
Description: (§1) A panel of tumor cell lines harboring KRas G12C or other KRas mutations are collected (Table 6). All cell lines are from ATCC or other sources indicated.
(§2) Typically cells are cultured in RPMI1640 or Dulbecco's modified Eagle's medium (DMEM, GIBCO) supplemented with 10% FBS (GIBCO, Invitrogen). For 2D culture cells (4×10^3/well) maintained in growth medium described above, are plated onto 96 well tissue culture plates Corning® Cat. 3603) a day before the treatment. For 3D culture 8000 cells/well are seeded onto 96 well ultra-low attachment tissue culture plates (Corning, #3474). The cells are treated compound for 96 hr, and then are analyzed for viability using the CellTiterGlo® Luminescent Cell Viability Assay® (Promega #G7572 for 2D and Promega #G9683 for 3D cultures) according to manufacturer's instructions and an EnVision™ plate reader. Nonlinear regression and sigmoidal dose-response curves are used to calculate the half maximal inhibitory concentration (IC50) with GraphPad Prism 4® software.

H1792 = experiment: CellTiterGlo Cell Proliferation Assay, H1792; type: cell-based; conditions: Homo sapiens, NCI-H1792, KRas G12C, Lung, 96 hr
Description: as §1, §2

[1] = system: pERK in H358 xenograft tumors; experiment: In vivo target inhibition/PD, H358 xenograft, pERK; set-up: species or system mouse; conditions: for inhibition at 10 mg/kg: 10 mg/kg single dose; for inhibition at 30 mg/kg: 30 mg/kg single dose
Description: To evaluate in vivo target inhibition and anti-tumor efficacy of a compound, Human lung cancer cells, H358 or H2122 are implanted into nude mice xenograft tumor models. Either H358 or H2122 cells (10×10^6 in a 1:1 Matrigel® mix, 0.2 mL total volume) are implanted by subcutaneous injection in hind leg of nude female mice (Harlan Laboratories). A total of 5 mice each group are used for efficacy study, and a total of 3-4 mice each group are used for target engagement and PD study. Treatment is initiated with oral administration (gavage) of a test compound or vehicle (20% Captisol®, 25 mM phosphate, pH 2.0 in 0.2 mL volume when the tumor size reaches approximately […]. Tumor growth and body weight are monitored over time to evaluate efficacy and signs of toxicity. Bidimensional measurements of tumors are performed twice a week and tumor volumes are calculated based on mid-axis length and mid-axis width. Tumor volume data are transformed to a log scale to equalize variance across time and treatment groups. The log volume data are analyzed with a two-way repeated measures analysis of variance by time and treatment using the mixed procedures in SAS software (version 8.2). The correlation model for the repeated measures is spatial power. Treated groups are compared to the control group at each time point. The mixed procedure is also used separately for each treatment group to calculate adjusted means and standard errors at each time point. Both analyses account for the autocorrelation within each animal. The adjusted means and standard errors are plotted for each treatment group versus time.
For in vivo target inhibition and PD analysis, tumors are ground by mortar and pestle on dry ice and tumor fragments are added to 800 μL of lysis buffer containing 1% Triton X100, 25 mM Tris pH 7.5, 150 mM NaCl, 1 mM EDTA, and 1 mM EGTA with Halt protease and phosphatase inhibitor cocktail (Thermo Scientific, cat. no. 1861281) in lysing matrix D tubes (MP Biomedical®, cat. no. 6913-500) with one additional large bead (MP Biomedical® ¼″ ceramic sphere bead cat. no. 6540-412) per tube. Tumor fragments are homogenized in a Thermo Bio101® fast prep (FP120) at setting 4 for […] while cold for a total of 2 times. Lysates are spun at 14,000 rpm for 10 min at 4° C. to clarify. Protein estimation is done on the lysate supernatant using a BioRad Dc® protein assay and lysates are diluted in complete lysis/binding buffer from the Ras GTPase Chemi ELISA Kit® (Active Motif, cat. no. 52097). The active KRas ELISA was performed as follows: Glutathione-coated ELISA wells were incubated with diluted RAF1-GST in complete lysis/binding buffer for 1 hr at 4° C. with gentle agitation. Wells are washed 3 times with wash buffer and 100 μg of lysates are added to each well and incubated at RT for 1 hr with mild agitation. The wells are washed an additional 3 times, then primary antibody, diluted in antibody binding buffer, is added to each well. The plates are incubated for 1 hr. The wells are washed 3 more times before adding HRP-conjugated secondary antibody, diluted in antibody binding buffer, to each well. The plates are incubated at RT for 1 hr. ELISA wells are washed 4 times, chemiluminescent reagents is added and then luminescence is read. For pERK Meso Scale Discovery ELISA, 25 μg of protein containing 0.1% SDS is used; for pMEK Meso Scale Discovery ELISA, 50 μg of protein without SDS is used. Meso Scale Discovery Whole Cell Lysate Kits for pERK and pMEK are provided by Meso Scale Discovery.
The tumor samples are collected 4 hr post a single dose. The tumor lysates are prepared and the inhibition of pERK, pMEK, and active KRas is measured as described above.
After a single dose, the tumor samples are harvested at 2, 4, 8, 12 and 24 hr post doing. The tumor lysates are prepared and the inhibition of pERK, pMEK, and active KRas is measured as described above.

EL3187 (PDX) = experiment: Anti-tumor growth activity, EL3187 lung PDX; type: in vivo; conditions: for Tumor Growth Inhibition (%) or Regression (−%): EL3187 (PDX) Lung, 28 Day, negative = regression
[2] = read-out: IC50 (μM) in 2 D cell proliferation
[3] = read-out: IC50 (μM) in 3 D spheroid cell proliferation
[4] = Mus musculus, NCI-H358, 2 h, H358 xenograft, time course, 2 hr, read-out: % Inhibition pERK
[5] = Mus musculus, NCI-H358, 4 h, H358 xenograft, time course, 4 hr, read-out: % Inhibition pERK
[6] = Mus musculus, NCI-H358, 4 h, H358 xenograft, 4 hr post dose, read-out: % Inhibition pERK
[7] = Mus musculus, NCI-H358, 8 h, H358 xenograft, time course, 8 hr, read-out: % Inhibition pERK
[8] = Mus musculus, NCI-H358, 12 h, H358 xenograft, time course, 12 hr, read-out: % Inhibition pERK
[9] = Mus musculus, NCI-H358, 24 h, H358 xenograft, time course, 24 hr, read-out: % Inhibition pERK

Compound C=CC(=O)N1CCN(c2ncnc3c(F)c(-c4ccc(F)c5sc(N)nc45)c(Cl)cc23)CC1 [Example 1, 1-{4-[7-(2-Amino-7-fluoro-1,3-benzothiazol-4-yl)-6-chloro-8-fluoroquinazolin-4-yl]piperazin-1-yl}prop-2-en-1-one] has a pIC50 (KRas G12C; 5 min incubation) of 7.60, a pIC50 (KRas G12C; 60 min incubation) of 7.62 and an IC50 (LXFA-983L; [2]) of 1.34 µM. It also gave an IC50 (LXFA-983L; [3]) of 0.05 µM, an IC50 (H1792; [2]) of 3.93 µM and an IC50 (H1792; [3]) of 3.84 µM. The “dose to achieve 50% target inhibition (TED50), pERK” value ([1]; H358 xenograft, single dose, 4 hr) was 9.78 mg/kg, the inhibition at 10 mg/kg [1, 4] was 61.7% and the inhibition at 30 mg/kg [1, 4] was 83.1%. The inhibition at 10 mg/kg [1, 5] was 73.5%, the inhibition at 30 mg/kg [1, 5] was 87.3% and the inhibition at 1 mg/kg ([1]; Mus musculus, NCI-H358, 4 h, H358 xenograft, 1 mg/kg single dose, 4 hr post dose) was 5.5%. The inhibition at 3 mg/kg ([1]; Mus musculus, NCI-H358, 4 h, H358 xenograft, 3 mg/kg single dose, 4 hr post dose) was 16.4%, the inhibition at 10 mg/kg [1, 6] was 47.8% and the inhibition at 30 mg/kg [1, 6] was 84.2%. The inhibition at 100 mg/kg ([1]; Mus musculus, NCI-H358, 4 h, H358 xenograft, 100 mg/kg single dose, 4 hr post dose) was 83.5%, the inhibition at 10 mg/kg [1, 7] was 69.2% and the inhibition at 30 mg/kg [1, 7] was 86.5%. For the same compound, the inhibition at 10 mg/kg [1, 8] was 83%, the inhibition at 30 mg/kg [1, 8] was 77.4% and the inhibition at 10 mg/kg [1, 9] was 45%. For the same compound, the inhibition at 30 mg/kg [1, 9] was 63.4%, the inhibition at 10 mg/kg ([1]; Mus musculus, NCI-H358, H358 xenograft, from 2-12 hr, read-out: pERK inhibition) was 61 to 83% and the inhibition at 30 mg/kg ([1]; Mus musculus, NCI-H358, H358 xenograft, from 2-24 hr, read-out: pERK inhibition) was 63 to 87%. For the same compound, the pEC50 ([1]; Mus musculus, NCI-H358, H358 xenograft, plasma exposure by mass spectrum, read-out: plasma concentration to achieve 50% target inhibition (TEC50), pERK) was 6.32, the “Tumor Growth Inhibition (%) or Regression (−%)” value (“Tumor Growth Inhibition … (−%)” below) (EL3187 (PDX); 5 mg/kg BID) was −65% and the “Tumor Growth Inhibition … (−%)” value (EL3187 (PDX); 5 mg/kg QD) was 94%. The “Tumor Growth Inhibition … (−%)” value (EL3187 (PDX); 15 mg/kg BID) was −80%, the “Tumor Growth Inhibition … (−%)” value (EL3187 (PDX); 15 mg/kg QD) was −75% and the “Tumor Growth Inhibition … (−%)” value (EL3187 (PDX); 30 mg/kg BID, 30 mg/kg) was −100% and −92.5%. For the same compound, the “Tumor Growth Inhibition … (−%)” value (EL3187 (PDX); 100 mg/kg BID) was −100%, the “Tumor Growth Inhibition … (−%)” value (EL3187 (PDX); 100 mg/kg QD) was −100% and the “In Vivo Anti-Tumor Activities” value (EL3187 (PDX); EL3187 Lung PDX, Example 1 5 mg/kg QDx28) was 94.8.
